Experimental data: patent US7384656B2, “Anti-allergy composition and related method” (Access Business Group International LLC, priority 2004, dated 2008)

Assays:
Format in all cases: cell-based
[1] = test system: PGD2 release, RBL-2H3 cells; assay: PGD2 release from IgE-sensitized, DNP-BSA stimulated RBL-2H3 cells (ELISA); details: 10 μg/ml
Protocol: (§1) The methodology used to obtain the results of FIG. 9 will now be described. First, RBL-2H3 cells, available from ATCC (American Type Culture Collection) of Manassas, Va., were plated in 24 well plates at 5×10^4/well. Following adherence, the cells were exposed to the ingredients or combination of ingredients noted in FIG. 9, also referred to as samples. The samples were used at the concentrations noted in Table VI. Stock solutions of all samples were prepared in a solution of DMSO, ethanol, and water present in a ratio of 5:3:2 at 100 mg/ml. Each sample was then diluted in media to the final concentration. The cells were then incubated overnight with the samples. The following day a mouse anti-dinitrophenyl (DNP) IgE antibody, available from Sigma of St. Louis, Mo., was added to the cells at a final concentration of 1 ng/ml. The cells were incubated for 1.5 hr at 37° C. to allow binding of the IgE molecule to the cellular IgE receptor via the constant region of the antibody. Following this incubation period, the cells were washed twice. A solution containing DNP conjugated to BSA (DNP-BSA), available from Calbiochem of San Diego, Calif., was added to the cells at 0.5 ng/ml. […] Next, the measured OD450 data from the ELISA was inputted into a calibration graph to determine the amount by which histamine was reduced relative to an untreated control sample. […]

[2] = test system: IgE secretion by U266 human myeloma cells; assay: IgE secretion by U266 human myeloma cells (IgE ELISA of supernatants); details: for Percent Control, IgE Secretion (IgE) (Table VIII): 100 μg/ml (no concentration printed for Formula)
Protocol: The methodology used to obtain the results of FIG. 3 will now be described. First, U266 human myeloma cells, available from ATCC of Manassas, Va. were plated in 96 well plates at 4×10^4/well. The cells were exposed to the sample combinations of ingredients listed in Table I, each combination referred to as a “sample.” Stock solutions of all samples were prepared in a solution of DMSO, ethanol, and water present in a ratio of 5:3:2 at 100 mg/ml. Each sample was then diluted to 100 μg/ml in media. Duplicate plates of each sample were prepared so that viability could be determined multiple times for each sample, with the results of the multiple samples averaged following treatment of the cells. The plates were incubated an additional 48 hours. Thereafter, the amount of IgE in the supernatants was measured using a conventional quantitative IgE ELISA kit available from Bethyl Laboratories of Montgomery, Tex. Next, the measured OD450 data from the IgE ELISA was inputted into a calibration graph, illustrated in FIG. 4, to determine the concentration of IgE in ng/ml in each supernatant. This calibration graph was generated by measuring the OD450 of multiple, known concentrations (in nanograms per ml) of purified IgE. As shown in the graph, the X-axis indicates the concentrations of the IgE in ng/ml; and the Y-axis indicates the OD450 derived from each of the concentrations. The line 100 connects the data points, while line 110 is a trend line corresponding to the equation in this particular embodiment of: Y=0.2909X−0.2527 Equation 1 With the IgE calibration graph, the amount of IgE for each sample was determined, and the subsequent data was input into FIG. 3 for comparative analysis.

[3] = test system: LTC4 release, RBL-2H3 cells; assay: LTC4 release from IgE-sensitized, DNP-BSA stimulated RBL-2H3 cells (ELISA); details: 1 μg/ml
Protocol: as §1

[4] = test system: histamine release, RBL-2H3 cells; assay: Histamine release from IgE-sensitized, DNP-BSA stimulated RBL-2H3 cells (ELISA); details: for Percent Control of Histamine Release (Table VII): 10 ng/ml, in combinations each part at 10 ng/ml; for Percent Control, Histamine Release (Table VIII): 1 μg/ml
Protocol: The methodology used to obtain the results of FIG. 9 will now be described. First, RBL-2H3 cells, available from ATCC (American Type Culture Collection) of Manassas, Va., were plated in 24 well plates at 5×10^4/well. Following adherence, the cells were exposed to the ingredients or combination of ingredients noted in FIG. 9, also referred to as samples. The samples were used at the concentrations noted in Table VI. Stock solutions of all samples were prepared in a solution of DMSO, ethanol, and water present in a ratio of 5:3:2 at 100 mg/ml. Each sample was then diluted in media to the final concentration. The cells were then incubated overnight with the samples. The following day a mouse anti-dinitrophenyl (DNP) IgE antibody, available from Sigma of St. Louis, Mo., was added to the cells at a final concentration of 1 ng/ml. The cells were incubated for 1.5 hr at 37° C. to allow binding of the IgE molecule to the cellular IgE receptor via the constant region of the antibody. Following this incubation period, the cells were washed twice. A solution containing DNP conjugated to BSA (DNP-BSA), available from Calbiochem of San Diego, Calif., was added to the cells at 0.5 ng/ml. The cells were incubated an additional 1 hr at 37° C. The supernatants were assayed for the presence of histamine, PGD2 and/or LTC4 using ELISA kits commercially available from Cayman Chemical of Ann Arbor, Mich. according to the manufacturer's specifications. Next, the measured OD450 data from the ELISA was inputted into a calibration graph to determine the amount by which histamine was reduced relative to an untreated control sample. An example of a histamine calibration graph is illustrated in FIG. 10. Suffice it to say that calibration graphs for PGD2 and LTC4 are similar. The calibration graph in FIG. 10 was generated by measuring the OD450 of multiple, known concentrations of purified histamine. As shown in the graph, the X-axis indicates the concentrations of the histamine in nanomolar; and the Y-axis indicates the OD450 derived from each of the concentrations. The line 120 connects the data points, while line 130 is a trend line corresponding to the equation in this particular embodiment of: Y=−0.0025X^2+0.2915X+2.0775 Equation 2 With the histamine calibration graph, the amount of histamine for each sample was determined, and the subsequent data was input into Table VI and FIG. 9 for comparative analysis.

[5] = listed as Luteolin from Perilla seed

Which “Percent Control of PGD2 Release (Table VI)” value [1] does the source give for `O=c1cc(-c2ccc(O)c(O)c2)oc2cc(O)cc(O)c12` [Luteolin] here?
Its value is 68%.

And the “Percent Control, IgE Secretion (IgE) (Table VIII)” value [2]?
Its value is “about 95%”.

What about the “Percent Control, IgE Secretion (IgE) (Table VIII)” value [2, 5] of the same compound?
Its value is 95.5%.

And the “Percent Control IgE-Secretion (Table V)” value ([2]; 100 μg/ml, relative to untreated control cells)?
The value was 53%.

What about the “Percent Control LTC4 Release (Table VI)” value [3] of the same compound?
The value was 157%.

What about the “Percent Control of Histamine Release (Table VII)” value (from here on “Percent Control … (Table VII)”) [4] of the same compound?
Its value is 88.1%.

What about the “Percent Control … (Table VII)” value ([4]; listed as luteolin) of the same compound?
The value was “about 88%”.

And the “Percent Control … (Table VII)” value ([4]; listed as luteolin from Perilla leaf)?
The value was “about 88%”.

What about the “Percent Control of Histamine Release (Table VI)” value ([4]; 100 ng/ml) of the same compound?
Its value is 10%.

What about the “Percent Control, Histamine Release (Table VIII)” value [4] of the same compound?
The value was “about 100%”.

And the “Percent Control, Histamine Release (Table VIII)” value [4, 5]?
The value was 99.9%.
